Reference: EP0092073A1, “Magnesium salt of chenodeoxycholic acid and ursodeoxycholic acid, the process for its preparation, and therapeutic compositions which contain it as active principle” (SCHWARZ ITALIA S.p.A., priority 1982, dated 1983)

How the values were obtained:
Type in all cases: in vivo
Mus musculus = assay: Acute lethality and toxicity, oral administration (gastric probe); parameters: key to Toxic symptomatology Type: NN = no symptomatology; D = depression; conditions: for % mortality at following times after administration 24 h / % mortality at following times after administration 7 days / Toxic symptomatology Type / Toxic symptomatology Latency: oral; for LD50 (mg/kg with reliability limits) 7 days after treatment: po, probit method
Description: (§1) Unless otherwise specified, the research was carried out using: a) Mg-UCD capsules as such; b) the powdered contents of Mg-UCD capsules; CDCA (chenodeoxycholic acid) and UDCA (ursodeoxycholic acid) as pure substance which in all cases was partly dissolved and partly suspended under warm conditions (T = 30°C) in 10% gum arabic mucilage (so as to administer 10-40 ml of liquid per kg orally). In certain cases, namely in the experiments involving parenteral administration, the active principle of Mg-UCD, the chenodeoxycholic acid and ursodeoxycholic acid were dissolved in distilled water of slightly alkaline pH (5-10 ml/kg).
(§2) The generally acute lethality, toxicity and tolerability were determined by oral administration of the Mg-UCD (by gastric probe) in the Mus musculus, rat and dog. Animals of both sexes were used, none of which were pregnant. They were fasted for about 12 hours before treatment (but allowing them free access to water). The investigations were carried out using the Mg-UCD in powder form. Comparative investigations were carried out on the rat and Mus musculus using the active principle by endoperitoneal administration, and chenodeoxycholic acid and ursodeoxycholic acid by oral administration (using a gastric probe). Each dose was administered to 20 rats or Mus musculus (10 male and 10 female) and to eight dogs (4 male and 4 female). The animals were observed attentively during the 7 days following administration, and any lethality, toxic symptoms, disturbances, functional variations determinable with the eye, behaviour etc. were noted.
(§3) The LD50 was determined 7 days after administration using the probit method.

rat = assay: as above; parameters: key to Toxic symptomatology Type: NN = no symptomatology; D = depression; conditions: for % mortality at following times after administration 24 h / % mortality at following times after administration 7 days / Toxic symptomatology Type / Toxic symptomatology Latency: oral; for LD50 (mg/kg with reliability limits) 7 days after treatment: po, probit method
Description: as §1, §2, §3

hampsters [1] = assay: Action on the formation of cholesterol calculi in the gall-bladder (cholesterol-enriched diet, 80 days); conditions: for % animals with calculi / % animals with crystals: cholesterol-enriched diet
Description: (§4) The investigations were carried out on hampsters (of female sex, but excluding those in a state of pregnancy) having an initial weight of 75-90 g. They were treated for 80 days with oral administration (by gastric probe) of MG-UCD (10-20 mg/kg/day), chenodeoxycholic acid (10-20 mg/kg/day) or ursodeoxycholic acid (10-20 mg/kg/day) (Tables 4 and 5). The animals were maintained for 80 consecutive days on a Nossan feed diet for rats, enriched with cholesterol (2 mg/g of food).
(§5) Each experimental group consisted of 10 units. After 80 days, the animals were narcotised with ethyl ether, and the bile was withdrawn, together with the calculi and crystals from the gall-bladder as described by Pearlman and coll. in Gastroenterology 77, 634 (1979).

hampsters [2] = assay: Bile lipid and bile acid contents of the bile (cholesterol-enriched diet, 80 days)
Description: as §4, §5
The bile acid, phospholipid, cholesterol, cholic acid, chenodeoxycholic acid, ursodeoxycholic acid, DCA (deoxycholic acid) and LCA (lithocholic acid) contents were evaluated in the bile by the methods described by Pearlman and coll. (see above).

patients = assay: Controlled study in comparison with the free acids; tolerability in patients
[3] = M. musculus F, 250 mg/kg (60 Dts/kg)
[4] = M. musculus F, 2500 mg/kg (600 Dts/kg)
[5] = M. musculus F, 5000 mg/kg (1200 Dts/kg)
[6] = M. musculus F, 10000 mg/kg (2400 Dts/kg)
[7] = M. musculus M, 250 mg/kg (60 Dts/kg)
[8] = M. musculus M, 2500 mg/kg (600 Dts/kg)
[9] = M. musculus M, 5000 mg/kg (1200 Dts/kg)
[10] = M. musculus M, 10000 mg/kg (2400 Dts/kg)
[11] = Rat F, 5000 mg/kg (1200 Dts/kg)
[12] = Rat F, 10000 mg/kg (2400 Dts/kg)
[13] = Rat M, 5000 mg/kg (1200 Dts/kg)
[14] = Rat M, 10000 mg/kg (2400 Dts/kg)
[15] = female hampsters, 10 mg/kg/day oral for 80 days
[16] = female hampsters, 20 mg/kg/day oral for 80 days

Substance: double magnesium salt of chenodeoxycholic acid and ursodeoxycholic acid [Mg-UCD]
- % mortality at following times after administration 24 h (Mus musculus; [3]): 0%
- % mortality at following times after administration 7 days (Mus musculus; [3]): 0%
- Toxic symptomatology Type (Mus musculus; [3]): NN
- % mortality at following times after administration 24 h (Mus musculus; [4]): 0%
- % mortality at following times after administration 7 days (Mus musculus; [4]): 0%
- Toxic symptomatology Latency (Mus musculus; [4]): 5-10 min
- Toxic symptomatology Type (Mus musculus; [4]): D
- % mortality at following times after administration 24 h (Mus musculus; [5]): 0%
- % mortality at following times after administration 7 days (Mus musculus; [5]): 0%
- Toxic symptomatology Latency (Mus musculus; [5]): 5-10 min
- Toxic symptomatology Type (Mus musculus; [5]): D
- % mortality at following times after administration 24 h (Mus musculus; [6]): 10%
- % mortality at following times after administration 7 days (Mus musculus; [6]): 10%
- Toxic symptomatology Latency (Mus musculus; [6]): 5-10 min
- Toxic symptomatology Type (Mus musculus; [6]): D
- LD50 (mg/kg with reliability limits) 7 days after treatment (Mus musculus; M. musculus F): 14011 (10884-18033) mg/kg
- % mortality at following times after administration 24 h (Mus musculus; [7]): 0%
- % mortality at following times after administration 7 days (Mus musculus; [7]): 0%
- Toxic symptomatology Type (Mus musculus; [7]): NN
- % mortality at following times after administration 24 h (Mus musculus; [8]): 0%
- % mortality at following times after administration 7 days (Mus musculus; [8]): 0%
- Toxic symptomatology Latency (Mus musculus; [8]): 5-10 min
- Toxic symptomatology Type (Mus musculus; [8]): D
- % mortality at following times after administration 24 h (Mus musculus; [9]): 0%
- % mortality at following times after administration 7 days (Mus musculus; [9]): 0%
- Toxic symptomatology Latency (Mus musculus; [9]): 5-10 min
- Toxic symptomatology Type (Mus musculus; [9]): D
- % mortality at following times after administration 24 h (Mus musculus; [10]): 10%
- % mortality at following times after administration 7 days (Mus musculus; [10]): 10%
- Toxic symptomatology Latency (Mus musculus; [10]): 5-10 min
- Toxic symptomatology Type (Mus musculus; [10]): D
- LD50 (mg/kg with reliability limits) 7 days after treatment (Mus musculus; M. musculus M): 13100 (10515-16319) mg/kg
- % mortality at following times after administration 24 h (rat; Rat F, 250 mg/kg (60 Dts/kg)): 0%
- % mortality at following times after administration 7 days (rat; Rat F, 250 mg/kg (60 Dts/kg)): 0%
- Toxic symptomatology Type (rat; Rat F, 250 mg/kg (60 Dts/kg)): NN
- % mortality at following times after administration 24 h (rat; Rat F, 2500 mg/kg (600 Dts/kg)): 0%
- % mortality at following times after administration 7 days (rat; Rat F, 2500 mg/kg (600 Dts/kg)): 0%
- Toxic symptomatology Latency (rat; Rat F, 2500 mg/kg (600 Dts/kg)): 5-10 min
- Toxic symptomatology Type (rat; Rat F, 2500 mg/kg (600 Dts/kg)): D
- % mortality at following times after administration 24 h (rat; [11]): 0%
- % mortality at following times after administration 7 days (rat; [11]): 0%
- Toxic symptomatology Latency (rat; [11]): 5-10 min
- Toxic symptomatology Type (rat; [11]): D
- % mortality at following times after administration 24 h (rat; [12]): 10%
- % mortality at following times after administration 7 days (rat; [12]): 10%
- Toxic symptomatology Latency (rat; [12]): 5-10 min
- Toxic symptomatology Type (rat; [12]): D
- LD50 (mg/kg with reliability limits) 7 days after treatment (rat; Rat F): 13100 (10515-16319) mg/kg
- % mortality at following times after administration 24 h (rat; Rat M, 250 mg/kg (60 Dts/kg)): 0%
- % mortality at following times after administration 7 days (rat; Rat M, 250 mg/kg (60 Dts/kg)): 0%
- Toxic symptomatology Type (rat; Rat M, 250 mg/kg (60 Dts/kg)): NN
- % mortality at following times after administration 24 h (rat; Rat M, 2500 mg/kg (600 Dts/kg)): 0%
- % mortality at following times after administration 7 days (rat; Rat M, 2500 mg/kg (600 Dts/kg)): 0%
- Toxic symptomatology Latency (rat; Rat M, 2500 mg/kg (600 Dts/kg)): 5-10 min
- Toxic symptomatology Type (rat; Rat M, 2500 mg/kg (600 Dts/kg)): D
- % mortality at following times after administration 24 h (rat; [13]): 0%
- % mortality at following times after administration 7 days (rat; [13]): 0%
- Toxic symptomatology Latency (rat; [13]): 5-10 min
- Toxic symptomatology Type (rat; [13]): D
- % mortality at following times after administration 24 h (rat; [14]): 10%
- % mortality at following times after administration 7 days (rat; [14]): 10%
- Toxic symptomatology Latency (rat; [14]): 5-10 min
- Toxic symptomatology Type (rat; [14]): D
- LD50 (mg/kg with reliability limits) 7 days after treatment (rat; Rat M): 14011(10884-18033) mg/kg
- % animals with calculi (hampsters [1]; [15]): 20%
- % animals with crystals (hampsters [1]; [15]): 20%
- % animals with calculi (hampsters [1]; [16]): 0%
- % animals with crystals (hampsters [1]; [16]): 0%
- Body weight (g ± s.e.) after following days 80 (hampsters [1]; female hampsters, day 80, oral, 10 mg/kg/day): 152 ± 8 g
- appearance of cholesterol calculi and crystals in the gall-bladder (hampsters [1]; hampster, oral, more intense than chenodeoxycholic acid or ursodeoxycholic acid): hinders the appearance of cholesterol calculi and crystals in the gall-bladder in a dose-dependent manner
- Bile acids (expressed as molar % ± s.e.) Cheno-deoxycholic acid (hampsters [2]; 10 mg/kg/day oral for 80 days): 28.6 ± 2.9 molar %
- Bile acids (expressed as molar % ± s.e.) Cholic acid (hampsters [2]; 10 mg/kg/day oral for 80 days): 18.1 ± 2.6 molar %
- Bile acids (expressed as molar % ± s.e.) DCA (hampsters [2]; 10 mg/kg/day oral for 80 days): 13.4 ± 0.5 molar %
- Bile acids (expressed as molar % ± s.e.) LCA (hampsters [2]; 10 mg/kg/day oral for 80 days): 2.4 ± 0.1 molar %
- Bile acids (expressed as molar % ± s.e.) Urso-deoxycholic acid (hampsters [2]; 10 mg/kg/day oral for 80 days): 21.7 ± 2.9 molar %
- Bile lipids (expressed as molar % ± s.e.) Bile acids (hampsters [2]; 10 mg/kg/day oral for 80 days): 78.6 ± 5.3 molar %
- Bile lipids (expressed as molar % ± s.e.) Cholesterol (hampsters [2]; 10 mg/kg/day oral for 80 days): 6.9 ± 0.4 molar %
- Bile lipids (expressed as molar % ± s.e.) Phospho-lipids (hampsters [2]; 10 mg/kg/day oral for 80 days): 15.6 ± 1.7 molar %
- Bile acids (expressed as molar % ± s.e.) Cheno-deoxycholic acid (hampsters [2]; 20 mg/kg/day oral for 80 days): 24.4 ± 3.1 molar %
- Bile acids (expressed as molar % ± s.e.) Cholic acid (hampsters [2]; 20 mg/kg/day oral for 80 days): 11.4 ± 1.7 molar %
- Bile acids (expressed as molar % ± s.e.) DCA (hampsters [2]; 20 mg/kg/day oral for 80 days): 10.5 ± 0.4 molar %
- Bile acids (expressed as molar % ± s.e.) LCA (hampsters [2]; 20 mg/kg/day oral for 80 days): 3.6 ± 0.2 molar %
- Bile acids (expressed as molar % ± s.e.) Urso-deoxycholic acid (hampsters [2]; 20 mg/kg/day oral for 80 days): 54.9 ± 3.6 molar %
- Bile lipids (expressed as molar % ± s.e.) Bile acids (hampsters [2]; 20 mg/kg/day oral for 80 days): 80.7 ± 4.7 molar %
- Bile lipids (expressed as molar % ± s.e.) Cholesterol (hampsters [2]; 20 mg/kg/day oral for 80 days): 4.7 ± 0.3 molar %
- Bile lipids (expressed as molar % ± s.e.) Phospho-lipids (hampsters [2]; 20 mg/kg/day oral for 80 days): 14.7 ± 1.9 molar %
- anti-dislipidemic effect (patients; in particular hypotriglyceridemic, at much smaller doses than the individual bile acids): modest anti-dislipidemic effect
- side effects (patients; patients): No significant side effects
- effects compared with the free acids (patients; relatively small doses of the salt against double doses of each acid administered separately): greater effects
